Key:
CDK5/GST-p25 = target: T1, CDK5/GST-p25 (Homo sapiens, UniProt Q00535); experiment: Inhibition of CDK5/GST-p25 kinase activity (ELISA with time-resolved fluorescence readout); type: biochemical
T1 construct: The final construct, encoding for full-length human CDK5; made in house; host or cells: Sf21 insect cells (baculovirus co-infection)
Procedure: Two recombinant baculoviral constructs were created, one encoding for human CDK5 and the other encoding for human p25 with an amino-terminal glutathione-S-transferase (GST) tag. PCR amplification of full-length CDK5 was performed utilizing human brain cDNA as a template and Pfu Turbo polymerase (Strategene). The PCR product from this reaction was subcloned into the baculoviral expression vector pFASTBAC1 (Gibco/BRL). The final construct, encoding for full-length human CDK5 (base pairs 25-903 of GenBank Accession #NM_004935), is 292 amino acids long with a predicted MW of 33.3 kDa.
For p25, the active truncated form of p35, amino acids 108-307 were PCR-amplified from human fetal brain cDNA (Clontech QUICK-Clone cDNA) using the Advantage 2 PCR system (Clontech). The PCR product was subcloned into the baculoviral transfer vector pFBGSTP (an engineered derivative of the baculoviral transfer vector pFASTBAC1). The final baculoviral construct encodes for base pairs 419-1021 of GenBank Accession #NM_003885, with an amino-terminal GST tag. The expressed GST-p25 is 444 amino acids long with a predicted MW of 50.3 kDa.
The CDK5/GST-p25 complex was generated by coexpression. Sf21 cells were cultured in TNM-FHS media at a density of 1.5×10^6 cells/mL and infected with each recombinant virus at MOI values of 5 (for CDK5) and 10 (for GST-p25). The cells were harvested 40 h after infection. For purification, the 100,000×g supernatant solution was used. Expression was confirmed by running samples on SDS-PAGE, followed by immunoblot analysis utilizing antibodies against CDK5 (anti-CDK5 (268-283); Calbiochem #219449) and p35 (Santa Cruz #sc820). The CDK5/GST-p25 complex was purified by glutathione affinity chromatography.
Compounds were tested for their ability to inhibit the kinase activity of recombinant baculoviral CDK5/GST-p25 using an enzyme-linked immunosorbent assay (ELISA) with time-resolved fluorescence (TRF) readout. Briefly, each 384-well FluoroNunc Maxisorp plate (Cat # 460372) plate was coated with 50 μl/well of 50 μg/ml substrate solution (recombinant GST-Rb(773-928)) in Tris-buffered saline (TBS). The CDK5/GST-p25 assay mixture (total volume=50 μl/well) consisting of 20 mM HEPES (pH 7.2), 10 μM ATP, 10 mM MgCl2, 5 mM EGTA, 25 mM β-glycerophosphate, 0.05% BSA, 2.5% DMSO, and various concentrations of test compound were then added to the assay plate. Enzyme (2 ng/ml CDK5/GST-p25) was added and the reaction was allowed to proceed at 37° C. for 20 minutes. Detection of the phosphorylated product was performed by adding 50 μl/well of phospho-Rb (Ser-780) antibody (Cell Signaling # 9307) diluted 1:10,000 in antibody dilution buffer (0.1% BSA in TBST). After 1-hour incubation at 37° C., 50 μl/well of Eu-Nl labelled anti-rabbit antibody (Wallac # AD0105; 1:50,000 in antibody dilution buffer) was added. Incubation at 37° C. then proceeded for 1 hour, followed by addition of 50 μl enhancement solution (Wallac #1244-105). The plate was gently agitated and after a few minutes, the fluorescence of the resulting solution was measured using a Multilabel Reader (Victor2 Model # 1420-018 or Envision Model # 2100). Inhibition data were analyzed using ActivityBase and IC50 curves were generated using XLFit 3.0.5.

His6-GSK-3β = target: T2, His6-GSK-3β (Homo sapiens, UniProt P49841); experiment: Inhibition of His6-GSK-3β kinase activity (ELISA-based format, time-resolved fluorescence readout); type: biochemical; conditions: class symbols; read-out: GSK3β IC50
T2 construct: made in house; host or cells: Sf21 insect cells (baculovirus)
T2 sequence (P49841 2-419): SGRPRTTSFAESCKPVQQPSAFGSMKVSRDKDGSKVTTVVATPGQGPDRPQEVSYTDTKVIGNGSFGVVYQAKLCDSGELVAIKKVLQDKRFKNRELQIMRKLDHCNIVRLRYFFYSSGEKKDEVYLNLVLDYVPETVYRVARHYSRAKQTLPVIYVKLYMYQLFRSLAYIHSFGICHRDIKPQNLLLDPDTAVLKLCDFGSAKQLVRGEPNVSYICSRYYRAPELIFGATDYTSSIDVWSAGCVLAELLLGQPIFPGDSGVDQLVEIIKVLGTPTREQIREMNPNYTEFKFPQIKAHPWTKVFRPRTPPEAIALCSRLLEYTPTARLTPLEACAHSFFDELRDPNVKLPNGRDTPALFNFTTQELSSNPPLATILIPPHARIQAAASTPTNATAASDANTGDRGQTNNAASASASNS
From the text: Full-length GSK-3β was amplified from a sequence-verified I.M.A.G.E. EST acquired from Research Genetics (Invitrogen, Clone ID# CSODB003YJ02). The final sequence-verified cDNA contained the coding region for a NH2-terminal tag, which encoded for 6 histidines and then eight vector-encoded amino acids prior to the start of GSK3β, which contained by # 43-1342 of Genbank Accession # NM_002093, encoding amino acids #2-419. The predicted molecular weight of the tagged, 435 amino acid, full-length protein is 48.5 kDa. The major structural element of this protein is the kinase domain, which is from amino acids #56-340. Recombinant baculoviral DNA was prepared by transposition in E. coli (BAC-TO-BAC system: Invitrogen) and the virus generated and amplified in Sf21 insect cells. A suspension culture of Sf21 cells was infected at an MOI of 0.7 and cell density of 1.5×10^6 cells/mL in Excell 420 serum-free media (JRH BioScience) and harvested 65 h after infection. The 100,000×g supernatant solution was used for purification. Expression was confirmed by running samples on SDS-PAGE, followed by immunoblot analysis utilizing both a Penta-HIS antibody (Qiagen #34660) and a GSK-3α/GSK-3β antibody (Calbiochem #368662, data not shown). The His6-tagged protein was purified to in one step by Ni-NTA affinity chromatography.
Inhibitory effects of compounds on baculoviral GSK-3β kinase activity were evaluated using an ELISA-based format in a 384-well FluoroNunc Maxisorp plate (Cat # 460372) with a time-resolved fluorescence readout. Briefly, each plate was coated with 50 μl/well of 20 μg/ml substrate solution (recombinant GST-Rb) in Tris-buffered saline (TBS). The GSK-3β assay mixture (total volume=50 μl/well) consisting of 50 mM HEPES (pH 7.2), 20 μM ATP, 10 mM MgCl2, 5 mM EGTA, 25 mM β-glycerophosphate, 0.05% BSA, 2.5% DMSO, and various concentrations of test compound were then added to the assay plate. Enzyme (200 ng/ml His6-GSK-3β) was then added and the reaction was allowed to proceed at 37° C. for 30 minutes. Detection of the phosphorylated product was performed by adding 50 μl/well of phospho-Rb (Ser-780) antibody (Cell Signaling # 9307) diluted 1:10,000 in antibody dilution buffer (0.1% BSA in TBST). After 1-hour incubation at 37° C., 50 μl/well of Eu-N1 labelled anti-rabbit antibody (Wallac # AD0105; 1:50,000 in antibody dilution buffer) was added. Incubation at 37° C. then proceeded for 1 hour, followed by addition of 50 μl enhancement solution (Wallac #1244-105). The plate was gently agitated and after a few minutes, the fluorescence of the resulting solution was measured using a Multilabel Reader (Victor2 Model # 1420-018 or Envision Model 2100). Inhibition data were analyzed using ActivityBase and IC50 curves were generated using XLFit 3.0.5.

T1 sequence (Q00535 whole entry): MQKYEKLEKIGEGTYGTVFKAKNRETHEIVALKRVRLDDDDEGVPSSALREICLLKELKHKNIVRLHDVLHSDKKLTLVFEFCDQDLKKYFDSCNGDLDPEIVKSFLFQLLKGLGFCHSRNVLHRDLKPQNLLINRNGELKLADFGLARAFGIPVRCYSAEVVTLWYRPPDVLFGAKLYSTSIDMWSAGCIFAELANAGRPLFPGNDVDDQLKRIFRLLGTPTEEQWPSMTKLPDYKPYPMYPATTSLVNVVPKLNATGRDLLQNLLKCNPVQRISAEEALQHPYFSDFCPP
T1 sequence (Q15078 108-307 partner limits assumed): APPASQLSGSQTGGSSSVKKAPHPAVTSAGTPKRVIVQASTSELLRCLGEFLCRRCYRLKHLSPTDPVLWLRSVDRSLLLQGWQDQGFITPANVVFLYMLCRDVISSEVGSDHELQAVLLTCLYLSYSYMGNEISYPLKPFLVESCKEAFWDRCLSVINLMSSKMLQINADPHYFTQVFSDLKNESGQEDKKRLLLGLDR

Row | IC50 (CDK5/GST-p25; numeric bounds) [nM] | IC50 (His6-GSK-3β) [nM] | IC50 (CDK5/GST-p25; class symbols) [nM] | SMILES
1 | > 3000 | 300 to 3000 | – | O=C1Nc2ccc(Cl)cc2C1c1nc(NCc2cccnc2)nc2c1CCC2 (centres unmarked) [Example 327, 5-Chloro-3-{2-[(pyridin-3-ylmethyl)-amino]-6,7-dihydro-5H-cyclopentapyrimidin-4-yl}-1,3-dihydro-indol-2-one]
2 | – | > 10000 | > 10000 | CCCOCCNc1nc2c(c(C3C(=O)Nc4ccc(C#N)cc43)n1)CCC2 (centres unmarked) [Example 343, 2-Oxo-3-[2-(2-propoxy-ethylamino)-6,7-dihydro-5H-cyclopentapyrimidin-4-yl]-2,3-dihydro-1H-indole-5-carbonitrile]
3 | – | < 300 | < 300 | CCCn1cc2c(C3C(=O)Nc4ccc(Br)cc43)nc(NC[C@@H](O)CO)nc2n1 (stereo partly drawn) [Example 368, 5-Bromo-3-[6-((R)-2,3-dihydroxy-propylamino)-2-propyl-2H-pyrazolo[3,4-d]pyrimidin-4-yl]-1,3-dihydro-indol-2-one]
4 | – | < 300 | 300 to 3000 | N#Cc1ccc2c(c1)C(c1nc(NCCCN3CCCCC3)nc3nn(C4CCCC4)cc13)C(=O)N2 (centres unmarked) [Example 170, 3[2-Cyclopentyl-6-(3-piperidin-1-yl-propylamino)-2H-pyrazolo[3,4-d]pyrimidin-4-yl]-2-oxo-2,3-dihydro-1H-indole-5-carbonitrile]
5 | – | 300 to 3000 | 300 to 3000 | CCCn1cc2c(C3C(=O)Nc4ccc(C)cc43)nc(NCCN(C)C)nc2n1 (centres unmarked) [Example 309, 3-[6-(2-Dimethylamino-ethylamino)-2-propyl-2H-pyrazolo[3,4-d]pyrimidin-4-yl]-5-methyl-1,3-dihydro-indol-2-one]
6 | – | 300 to 3000 | < 300 | N#Cc1ccc2c(c1)C(c1nc(NCc3cccnc3)nc3c1CCC3)C(=O)N2 (centres unmarked) [Example 348, 2-Oxo-3-{2-[(pyridin-3-ylmethyl)-amino]-6,7-dihydro-5H-cyclopentapyrimidin-4-yl}-2,3-dihydro-1H-indole-5-carbonitrile]
7 | – | < 300 | < 300 | O=C1Nc2ccc([N+](=O)[O-])cc2C1c1ncnc2nn(C3CCCC3)cc12 (centres unmarked) [Example 33, 3-(2-Cyclopentyl-2H-pyrazolo[3,4-d]pyrimidin-4-yl)-5-nitro-1,3-dihydro-indol-2-one]
8 | – | 300 to 3000 | 300 to 3000 | CCCn1cc2c(C3C(=O)Nc4ccc(Br)cc43)nc(N[C@@H]3CCNC3)nc2n1 (some centres unmarked) [Example 363]
9 | – | < 300 | < 300 | CCCn1cc2c(C3C(=O)Nc4ccc(Br)cc43)nc(NC[C@H]3CCCO3)nc2n1 (stereo partly drawn) [Example 366, 5-Bromo-3-(2-propyl-6-{[(R)-1-(tetrahydro-furan-2-yl)methyl]-amino}-2H-pyrazolo[3,4-d]pyrimidin-4-yl)-1,3-dihydro-indol-2-one]
10 | – | < 300 | > 10000 | N#Cc1ccc2c(c1)C(c1nc(N3CCN(CCCc4ccccc4)CC3)nc3nn(C4CCCC4)cc13)C(=O)N2 (centres unmarked) [Example 128, 3-{2-cyclopentyl-6-[4-(3-phenyl-propyl)-piperazin-1-yl]-2H-pyrazolo[3,4-d]pyrimidin-4-yl}-2-oxo-2,3-dihydro-1H-indole-5-carbonitrile]
11 | – | < 300 | < 300 | CCCn1cc2c(C3C(=O)Nc4ccc(C#N)cc43)nc(NCc3cccnc3)nc2n1 (centres unmarked) [Example 184, 2-Oxo-3-{2-propyl-6-[(pyridin-3-ylmethyl)-amino]-2H-pyrazolo[3,4-d]pyrimidin-4-yl}-2,3-dihydro-1H-indole-5-carbonitrile]
12 | – | 300 to 3000 | 300 to 3000 | CN(C)CCNc1nc(C2C(=O)Nc3ccc(Br)cc32)c2cn(C)nc2n1 (centres unmarked) [Example 359, 5-Bromo-3-[6-(2-dimethylamino-ethylamino)-2-methyl-2H-pyrazolo[3,4-d]pyrimidin-4-yl]-1,3-dihydro-indol-2-one]
13 | – | < 300 | < 300 | COCCNc1nc(C2C(=O)Nc3ccc(C#N)cc32)c2cn(C3CCCC3)nc2n1 (centres unmarked) [Example 174, 3-[2-Cyclopentyl-6-(2-methoxy-ethylamino)-2H-pyrazolo [3,4-d]pyrimidin-4-yl]-2-oxo-2,3-dihydro-1H-indole-5-carbonitrile]
14 | – | < 300 | > 10000 | CCN(CC)CCN(C)c1nc(C2C(=O)Nc3ccc(C#N)cc32)c2cn(C3CCCC3)nc2n1 (centres unmarked) [Example 121, 3-{2-cyclopentyl-6-[(2-diethylamino-ethyl)-methyl-amino]-2H-pyrazolo [3,4-d]pyrimidin-4-yl}-2-oxo-2,3-dihydro-1H-indole-5-carbonitrile]
15 | – | < 300 | 300 to 3000 | N#Cc1ccc2c(c1)C(c1nc(N3CCOCC3)nc3nn(C4CCCC4)cc13)C(=O)N2 (centres unmarked) [Example 118, 3-(2-cyclopentyl-6-morpholin-4-yl-2H-pyrazolo[3,4-d]pyrimidin-4-yl)-2-oxo-2,3-dihydro-1H-indole-5-carbonitrile]
16 | – | < 300 | > 10000 | N#Cc1ccc2c(c1)C(c1nc(Cl)nc3nn(C4CCCC4)cc13)C(=O)N2 (centres unmarked) [Example 113, 3-(6-Chloro-2-cyclopentyl-2H-pyrazolo[3,4-d]pyrimidin-4-yl)-2-oxo-2,3-dihydro-1H-indole-5-carbonitrile]
17 | – | < 300 | < 300 | C=CCNc1nc(C2C(=O)Nc3ccc(Br)cc32)c2cn(CCC)nc2n1 (centres unmarked) [Example 193, 3-(6-Allylamino-2-propyl-2H-pyrazolo[3,4-d]pyrimidin-4-yl)-5-bromo-1,3-dihydro-indol-2-one]
18 | – | < 300 | – | CCCCNc1nc(C2C(=O)Nc3ccc(C#N)cc32)c2cn(C3CCCC3)nc2n1 (centres unmarked) [Example 116, 3-(6-butylamino-2-cyclopentyl-2H-pyrazolo [3,4-d]pyrimidin-4-yl)-2-oxo-2,3-dihydro-1H-indole-5-carbonitrile]
